# Assay results as given in patent publication US20230085307A1, “PYRIDAZINONE COMPOUND AND HERBICIDE” (NISSAN CHEMICAL CORPORATION, priority 2019, published 2023).
# How the values were obtained:
# Chinese sprangletop = experiment: Test Example 3: herbicidal effect by foliage application, Wagner pot (Table 18, symbol D); type: in vivo, chinese sprangletop (Leptochloa chinensis)
# Summary of the method: (§1)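 Plants were sown in alluvial soil held under 0.1–0.5 cm standing water and grown 14 days in a greenhouse at 25–30 °C. An emulsifiable formulation, water-diluted to the set dose, was then sprayed onto the foliage, and effects were scored three weeks later using previously defined criteria.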
# redroot pigweed [1] = experiment: Test Example 4: herbicidal effect by soil treatment (Table 19, symbol N); type: in vivo, redroot pigweed (Amaranthus retroflexus)
# Summary of the method: (§2)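 Seeds were sown in sterilized diluvial soil and covered with about 1.5 cm of soil. An emulsion formulation diluted with water to a predetermined herbicide amount was sprayed evenly onto the soil surface. Plants grew in a greenhouse at 25° C. to 30° C., and the effect was scored three weeks after application using criteria from an earlier test.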
# Japanese bulrush = experiment: Test Example 1: herbicidal activity, application before weed generation under submerged conditions (Table 16, symbol B); type: in vivo, Japanese bulrush (Schoenoplectus juncoides)
# Summary of the method: (§3)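 Emulsion formulation, water-diluted to set dose, was put onto the flooded surface (4 cm depth, alluvial soil) the same day weeds were sown and 2.5-leaf rice transplanted. After 3 weeks at 25-30 °C under glass, each species was rated 0 (≤5% kill) to 5 (≥90% kill).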
# late watergrass = experiment: Test Example 1: herbicidal activity, application before weed generation under submerged conditions (Table 16, symbol A); type: in vivo, late watergrass (Echinochloa oryzicola)
# Summary of the method: as §3
# barnyard grass [2] = experiment: Test Example 5: herbicidal effect by foliage application, plastic box (Table 20, symbol H); type: in vivo, barnyard grass (Echinochloa crus-galli); conditions: foliage application, three weeks after application
# Summary of the method: (§4)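 Plants sown in sterilized diluvial soil and grown 14 days in a greenhouse at 25° C to 30° C, then sprayed on the foliage with the compound's emulsion diluted in water to a predetermined herbicide amount. Injury to weeds and crops scored three weeks after application on a visual rating scale.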
# lambsquarters [3] = experiment: Test Example 4: herbicidal effect by soil treatment (Table 19, symbol O); type: in vivo, lambsquarters (Chenopodium album)
# Summary of the method: as §2
# green foxtail [4] = experiment: Test Example 5: herbicidal effect by foliage application, plastic box (Table 20, symbol G); type: in vivo, green foxtail (Setaria viridis); conditions: foliage application, three weeks after application
# Summary of the method: as §4
# oval-leafed pondweed = experiment: Test Example 1: herbicidal activity, application before weed generation under submerged conditions (Table 16, symbol C); type: in vivo, oval-leafed pondweed (Monochoria vaginalis)
# Summary of the method: as §3
# redroot pigweed [5] = experiment: Test Example 5: herbicidal effect by foliage application, plastic box (Table 20, symbol N); type: in vivo, redroot pigweed (Amaranthus retroflexus); conditions: foliage application, three weeks after application
# Summary of the method: as §4
# green foxtail [6] = experiment: Test Example 4: herbicidal effect by soil treatment (Table 19, symbol G); type: in vivo, green foxtail (Setaria viridis)
# Summary of the method: as §2
# barnyard grass [7] = experiment: Test Example 3: herbicidal effect by foliage application, Wagner pot (Table 18, symbol H); type: in vivo, barnyard grass (Echinochloa crus-galli)
# Summary of the method: as §1
# southern crabgrass [8] = experiment: Test Example 5: herbicidal effect by foliage application, plastic box (Table 20, symbol F); type: in vivo, southern crabgrass (Digitaria ciliaris); conditions: foliage application, three weeks after application
# Summary of the method: as §4
# rice flat sedge = experiment: Test Example 3: herbicidal effect by foliage application, Wagner pot (Table 18, symbol E); type: in vivo, rice flat sedge (Cyperus iria)
# Summary of the method: as §1
# barnyard grass [9] = experiment: Test Example 4: herbicidal effect by soil treatment (Table 19, symbol H); type: in vivo, barnyard grass (Echinochloa crus-galli)
# Summary of the method: as §2
# southern crabgrass [10] = experiment: Test Example 4: herbicidal effect by soil treatment (Table 19, symbol F); type: in vivo, southern crabgrass (Digitaria ciliaris)
# Summary of the method: as §2
# velvetleaf [11] = experiment: Test Example 5: herbicidal effect by foliage application, plastic box (Table 20, symbol M); type: in vivo, velvetleaf (Abutilon theophrasti); conditions: foliage application, three weeks after application
# Summary of the method: as §4
# velvetleaf [12] = experiment: Test Example 4: herbicidal effect by soil treatment (Table 19, symbol M); type: in vivo, velvetleaf (Abutilon theophrasti)
# Summary of the method: as §2
# lambsquarters [13] = experiment: Test Example 5: herbicidal effect by foliage application, plastic box (Table 20, symbol O); type: in vivo, lambsquarters (Chenopodium album); conditions: foliage application, three weeks after application
# Summary of the method: as §4
# [14] = amount of applied herbicide 403 g/ha
# [15] = amount of applied herbicide 320 g/ha
compound,measurement,setting,value
CC[S+]([O-])c1cccc(-c2sc3ccc(F)cc3c2-c2c(O)c(C)nn(C)c2=O)c1 (stereo not drawn) [2-460],herbicidal effect on D: Chinese sprangletop,Chinese sprangletop; [14],0 (Herbicidal rate of 5% or less (almost no effect))
same,"herbicidal effect, N: redroot pigweed",redroot pigweed [1]; [14],3 (Herbicidal rate of 40% or more and less than 70%)
same,"Herbicidal effect, B: Japanese bulrush",Japanese bulrush; [14],0 (Herbicidal rate of 5% or less (almost no effect))
same,"Herbicidal effect, A: late watergrass",late watergrass; [14],3 (Herbicidal rate of 40% or more and less than 70%)
same,"H: barnyard grass, herbicidal effect grade",barnyard grass [2]; 403 g/ha,3 (Herbicidal rate of 40% or more and less than 70%)
same,"herbicidal effect, O: lambsquarters",lambsquarters [3]; [14],3 (Herbicidal rate of 40% or more and less than 70%)
same,"G: green foxtail, herbicidal effect grade",green foxtail [4]; 403 g/ha,2 (Herbicidal rate of 20% or more and less than 40%)
same,"Herbicidal effect, C: oval-leafed pondweed",oval-leafed pondweed; [14],0 (Herbicidal rate of 5% or less (almost no effect))
same,"N: redroot pigweed, herbicidal effect grade",redroot pigweed [5]; 403 g/ha,3 (Herbicidal rate of 40% or more and less than 70%)
same,"herbicidal effect, G: green foxtail",green foxtail [6]; [14],0 (Herbicidal rate of 5% or less (almost no effect))
same,herbicidal effect on H: barnyard grass,barnyard grass [7]; [14],4 (Herbicidal rate of 70% or more and less than 90%)
same,"F: southern crabgrass, herbicidal effect grade",southern crabgrass [8]; 403 g/ha,0 (Herbicidal rate of 5% or less (almost no effect))
same,herbicidal effect on E: rice flat sedge,rice flat sedge; [14],0 (Herbicidal rate of 5% or less (almost no effect))
same,"herbicidal effect, H: barnyard grass",barnyard grass [9]; [14],0 (Herbicidal rate of 5% or less (almost no effect))
same,"herbicidal effect, F: southern crabgrass",southern crabgrass [10]; [14],0 (Herbicidal rate of 5% or less (almost no effect))
same,"M: velvetleaf, herbicidal effect grade",velvetleaf [11]; 403 g/ha,3 (Herbicidal rate of 40% or more and less than 70%)
same,"herbicidal effect, M: velvetleaf",velvetleaf [12]; [14],0 (Herbicidal rate of 5% or less (almost no effect))
same,"O: lambsquarters, herbicidal effect grade",lambsquarters [13]; 403 g/ha,3 (Herbicidal rate of 40% or more and less than 70%)
Cc1nn(C)c(=O)c(-c2c(-c3ccoc3)sc3ccc(F)cc23)c1O [2-461],herbicidal effect on D: Chinese sprangletop,Chinese sprangletop; [15],0 (Herbicidal rate of 5% or less (almost no effect))
same,"herbicidal effect, N: redroot pigweed",redroot pigweed [1]; [15],2 (Herbicidal rate of 20% or more and less than 40%)
same,"Herbicidal effect, B: Japanese bulrush",Japanese bulrush; [15],0 (Herbicidal rate of 5% or less (almost no effect))
same,"Herbicidal effect, A: late watergrass",late watergrass; [15],3 (Herbicidal rate of 40% or more and less than 70%)
same,"H: barnyard grass, herbicidal effect grade",barnyard grass [2]; 320 g/ha,3 (Herbicidal rate of 40% or more and less than 70%)
same,"herbicidal effect, O: lambsquarters",lambsquarters [3]; [15],1 (Herbicidal rate of 5% or more and less than 20%)
same,"G: green foxtail, herbicidal effect grade",green foxtail [4]; 320 g/ha,3 (Herbicidal rate of 40% or more and less than 70%)
same,"Herbicidal effect, C: oval-leafed pondweed",oval-leafed pondweed; [15],0 (Herbicidal rate of 5% or less (almost no effect))
same,"N: redroot pigweed, herbicidal effect grade",redroot pigweed [5]; 320 g/ha,4 (Herbicidal rate of 70% or more and less than 90%)
same,"herbicidal effect, G: green foxtail",green foxtail [6]; [15],0 (Herbicidal rate of 5% or less (almost no effect))
same,herbicidal effect on H: barnyard grass,barnyard grass [7]; [15],4 (Herbicidal rate of 70% or more and less than 90%)
same,"F: southern crabgrass, herbicidal effect grade",southern crabgrass [8]; 320 g/ha,2 (Herbicidal rate of 20% or more and less than 40%)
same,herbicidal effect on E: rice flat sedge,rice flat sedge; [15],4 (Herbicidal rate of 70% or more and less than 90%)
same,"herbicidal effect, H: barnyard grass",barnyard grass [9]; [15],0 (Herbicidal rate of 5% or less (almost no effect))
same,"herbicidal effect, F: southern crabgrass",southern crabgrass [10]; [15],0 (Herbicidal rate of 5% or less (almost no effect))
same,"M: velvetleaf, herbicidal effect grade",velvetleaf [11]; 320 g/ha,4 (Herbicidal rate of 70% or more and less than 90%)
same,"herbicidal effect, M: velvetleaf",velvetleaf [12]; [15],0 (Herbicidal rate of 5% or less (almost no effect))
same,"O: lambsquarters, herbicidal effect grade",lambsquarters [13]; 320 g/ha,3 (Herbicidal rate of 40% or more and less than 70%)
